# Reference: patent US6310247A, “7-aryl-6(Z)-heptatrienoic acid retinamides” (Hoffmann-LA Roche Inc., priority 1999, dated 2001)
# “Also recorded” adds a separate entry of the source. Read-outs that look alike come from different tables or passages of the source.
# Columns and labels:
# ZR-75-1 cells = experiment: Apoptosis: cell death detection by ELISA, ZR-75-1; type: cell-based, human; details: for fold induction at 10 µM / fold induction at 1 µM / fold induction at 3.3 µM: Homo sapiens
# Method: ER+ breast carcinoma, human (ZR-75-1) obtained from ATCC (CRL 1500), were grown in Gibco's RPMI 1640 media supplemented with sodium pyruvate, 10% FBS and 13 ng/mL gentamicin. Cells were incubated at 37° C., 4.5% CO2 and 95.5% humidified air.
# (§1) 2. Apoptosis: Cell death detection by ELISA:
# (§2) Compounds of formula 1 were tested for the ability to cause apoptosis as follows:
# (§3) Cells and media were collected, cells were pelleted, resuspended in 100 μl lysis buffer (50 mM Tris-Cl (pH=8.0), 20 mM EDTA, 1% NP-40e) and incubated 30 minutes at 4° C. to lyse. Cell debris was spun down and an aliquot (30 μl) of the […] was removed for protein determination and stored at -20° C. An additional 280 μl of lysis buffer, was added, mixed thoroughly and spun down at 14,000 RPM for 10 minutes at 4° C. An aliquot was removed (180 μl) and the sample was stored at -20° C. until testing.
# (§4) A commercially available apoptosis detection kit, obtained from Boehringer Mannheim (Cat. No. 1544-674), was used as per the directions provided with the kit (Cell Death Detection ELISA). However, the protocol was modified in that a 1:40 to 1:100 dilution of sample was prepared, rather than the recommended 1:10 dilution, due to the increase in cell number used to prepare the sample extract and the subsequent increase in ELISA reactivity. The assay measures apoptosis by quantifying the amount of nucleosomal fragmentation from the extracts of cells treated with the test compounds (samples). These nucleosomal fragments, generated by the activation of endonucleases, are a known downstream effector of apoptosis. Antihistone antibodies are used to fix any nucleosomal fragments in the sample to the well of the microtiter plates. The sample is then incubated with anti-DNA antibodies conjugated to peroxidase and subsequently incubated with the peroxidase substrate, ABTS. The resulting colorimetric change is measured spectrophotometrically at 405/490nm.
# (§5) The total protein content of each sample was determined for the purpose of normalizing the ELISA values to amount of sample loaded. Microplate assay protocol described in the instruction manual, for (Biorad DC Assay, Cat.#500-0116) section 5.2. The protein concentrations were calculated based upon a linear regression curve.
# (§6) d) ELISA assay calculations
# (§7) Relative ELISA O.D. readings are determined by subtracting the ELISA plate background O.D. value. No drug control O.D. value (lysis buffer only) was subtracted from sample O.D. value. A correction coefficient (CC), based on the sample protein concentration compared to no drug control, was determined to correct the sample O.D. following subtraction of the background O.D. (BCS O.D.). The fold increase over no drug control is calculated and normalized to the total protein concentration of the samples by multiplying against the correction coefficient.
# (§8) To determine the fold increase in ELISA O.D., obtain the following O.D. measurements:
# (§9) ELISA plate background--lysis buffer only (EPB);
# (§10) no drug treated control--cell sample treated with DMSO (NDT);
# (§11) drug treated sample--cell sample treated with a compound of formula 1 (DT) Subtract EPB from NDT (NDT-EPB) and DT (DT-EPB). The fold increase of the treated over the control is then (DT-EPB)/(NDT-EPB).
# (§12) To determine the total protein concentration of the samples, obtain the total protein concentration in mg/ul calculated using standard linear regression formula (y=mx+b) based on BSA standards. B=ELISA background. Protein concentration (PC)(mg/ml)=(sample absorbance-b)/x.
# (§13) Correction coefficient (cc) is (NDT)(PC)/(DT)(PC).
# (§14) Determine fold increase of ELISA (FT) normalized to total PC:
# (§15) nDT is DT×cc (which is DT O.D. normalized to PC)
# (§16) nNDT is NDT×cc (which is NDT O.D. normalized to PC)
# (§17) FI normalized to PC is nDT/nNDT.
# MDA-435 cells = experiment: Apoptosis: cell death detection by ELISA, MDA-435; type: cell-based, human; details: for Fold induction of apoptosis, internal positive control (cont.) / fold induction at 10 µM: 10 uM; for fold induction at 10 µM / fold induction at 1 µM / fold induction at 3.3 µM: Homo sapiens
# Method: ER- breast carcinoma, human (MDA-435) obtained from Dr. Janet Price, MDA Cancer Center, Houston, Tex., were grown in Gibco's RPMI 1640 media supplemented with sodium pyruvate, 10% FBS and 13 ng/mL gentamicin. Cells were incubated at 37° C., 4.5% CO2 and 95.5% humidified air.
# as §1, §2, §3, §4, §5, §6, §7, §8, §9, §10, §11, §12, §13, §14, §15, §16, §17
# RKO cells = experiment: Apoptosis: cell death detection by ELISA, RKO (colorectal carcinoma); type: cell-based, human; details: Homo sapiens, RKO, 10 uM, read-out: Fold induction of apoptosis, internal positive control (cont.)
# Method: Colorectal carcinoma, human (RKO) obtained from Dr. Bernie Vogelstein, were grown in Gibco's Delbecco Minimum Essential media (DMEM), high glucose, supplemented with sodium pyruvate, 10% FBS and 13 ng/mL gentamicin. Cells were incubated at 37° C., 4.5% CO2 and 95.5% humidified air.
# as §1, §2, §3, §4, §5, §6, §7, §8, §9, §10, §11, §12, §13, §14, §15, §16, §17
# H1299 cells = experiment: Apoptosis: cell death detection by ELISA, H1299 (lung large cell carcinoma); type: cell-based; details: Homo sapiens, NCI-H1299, 10 uM, read-out: Fold induction of apoptosis, internal positive control (cont.)
# Method: Lung, large cell carcinoma, human (H1299), obtained from ATCC (CRL-5803), were grown in Gibco's Delbecco Minimum Essential media (DMEM), high glucose, supplemented with sodium pyruvate, 10% FBS and 13 ng/mL gentamicin. Cells were incubated at 37° C., 4.5% CO2 and 95.5% humidified air.
# as §1, §2, §3, §4, §5, §6, §7, §8, §9, §10, §11, §12, §13, §14, §15, §16, §17
# tumor cells = details: cited from earlier work; for Differentiation of certain tumor cells (in words): in vitro
# [1] = test system: ER+ and ER- breast carcinoma cells; experiment: Induction of apoptosis in ER+ and ER- carcinoma cells (statements in words); type: cell-based, human
# Method: as §1, §2, §3
# A commercially available apoptosis detection kit, obtained from Boehringer Mannheim (Cat. No. 1544-674), was used as per the directions provided with the kit (Cell Death Detection ELISA). […] The assay measures apoptosis by quantifying the amount of nucleosomal fragmentation from the extracts of cells treated with the test compounds (samples). […] The resulting colorimetric change is measured spectrophotometrically at 405/490nm.
# The total protein content of each sample was determined for the purpose of normalizing the ELISA values to amount of sample loaded. […] The protein concentrations were calculated based upon a linear regression curve. […]
# as §7, with “No drug control O.D. value (lysis buffer only) was subtracted from sample O.D. value.” left out, “coefficient. […]” for “coefficient.”
# To determine the total protein concentration of the samples, obtain the total protein concentration in mg/ul calculated using standard linear regression formula (y=mx+b) based on BSA standards. […] Protein concentration (PC)(mg/ml)=(sample absorbance-b)/x. […]
# tumors = details: cited from earlier work
# [2] = test system: retinoic acid X α, β and γ receptors (RXR); details: cited from earlier work
# RAR α, β and γ receptors = details: cited from earlier work
# [3] = test system: ER+ and ER- breast carcinoma cells; details: cited from earlier work
# [4] = cited from earlier work
# human carcinoma cells = details: in vitro; cited from earlier work
# [5] = ZR-75-1, 24 h, 24 hrs, read-out: Fold induction of apoptosis compared to no drug control
# [6] = ZR-75-1, 48 h, 48 hrs, read-out: Fold induction of apoptosis compared to no drug control
# [7] = ZR-75-1, 72 h, 72 hrs, read-out: Fold induction of apoptosis compared to no drug control
# [8] = MDA435, 24 h, 24 hrs, read-out: Fold induction of apoptosis compared to no drug control
# [9] = MDA435, 48 h, 48 hrs, read-out: Fold induction of apoptosis compared to no drug control
# [10] = MDA435, 72 h, 72 hrs, read-out: Fold induction of apoptosis compared to no drug control
structure (smiles),measurement,setting,value
"CC1=C(/C=C/C(C)=C\C=C\C(C)=C\C(=O)Nc2ccc(O)cc2)C(C)(C)CCC1 [9-cis 4-HPR, reference compound]","Fold induction of apoptosis, internal positive control (cont.)","ZR-75-1 cells; 24 hrs, 10 uM, 1440 min",2 fold
same,fold induction at 10 µM,"ZR-75-1 cells; ZR-75-1, 24 h, 24 hrs, 10 uM, read-out: Fold induction of apoptosis, internal positive control (cont.)",1
same,"Fold induction of apoptosis, internal positive control (cont.)","MDA-435 cells; 48 hrs, 2880 min",10 fold
same,"Fold induction of apoptosis, internal positive control (cont.)","MDA-435 cells; 72 hrs, 4320 min",12 fold
same,fold induction at 10 µM,"MDA-435 cells; MDA435, 48 h, 48 hrs, read-out: Fold induction of apoptosis, internal positive control (cont.)",15
same,fold induction at 10 µM,"MDA-435 cells; MDA435, 72 h, 72 hrs, read-out: Fold induction of apoptosis, internal positive control (cont.)",19
same,fold induction at 10 µM,RKO cells; 24 hrs,8
same,fold induction at 10 µM,RKO cells; 48 hrs,9
same,fold induction at 10 µM,RKO cells; 72 hrs,5
same,fold induction at 10 µM,H1299 cells; 24 hrs,1
same,fold induction at 10 µM,H1299 cells; 48 hrs,15
same,fold induction at 10 µM,H1299 cells; 72 hrs,25
CC1=C(/C=C/C(C)=C/C=C/C(C)=C\C(=O)O)C(C)(C)CCC1 [13-cis RA],Ability to induce apoptosis (in words),tumor cells,very limited
same,Differentiation of certain tumor cells (in words),tumor cells,cause differentiation of certain tumor cells in vitro
"C/C(=C/C=C/C(C)=C/C(=O)O)c1cc(C(F)(F)F)cc(C(F)(F)F)c1 [(2E,4E,6Z)-7-[3,5-bis(trifluoromethyl)phenyl]-3,7-dimethyl-2,4,6-heptatrienoic acid]",fold induction at 1 µM,ZR-75-1 cells; [5],1
same,fold induction at 3.3 µM,ZR-75-1 cells; [5],1
same,fold induction at 10 µM,"ZR-75-1 cells; ZR-75-1, 24 h, 24 hrs, 10 uM, read-out: Fold induction of apoptosis compared to no drug control",1
same,fold induction at 1 µM,ZR-75-1 cells; [6],1
same,fold induction at 3.3 µM,ZR-75-1 cells; [6],1
same,fold induction at 10 µM,"ZR-75-1 cells; ZR-75-1, 48 h, 48 hrs, 10 uM, read-out: Fold induction of apoptosis compared to no drug control",1
same,fold induction at 1 µM,ZR-75-1 cells; [7],1
same,fold induction at 3.3 µM,ZR-75-1 cells; [7],1
same,fold induction at 10 µM,"ZR-75-1 cells; ZR-75-1, 72 h, 72 hrs, 10 uM, read-out: Fold induction of apoptosis compared to no drug control",2
same,fold induction at 1 µM,MDA-435 cells; [8],1
same,fold induction at 3.3 µM,MDA-435 cells; [8],1
same,fold induction at 10 µM,MDA-435 cells; [8],1
same,fold induction at 1 µM,MDA-435 cells; [9],1
same,fold induction at 3.3 µM,MDA-435 cells; [9],1
same,fold induction at 10 µM,MDA-435 cells; [9],1
same,fold induction at 1 µM,MDA-435 cells; [10],1
same,fold induction at 3.3 µM,MDA-435 cells; [10],1
same,fold induction at 10 µM,MDA-435 cells; [10],2
same,Induction of apoptosis (in words),"[1]; 72 h, compared with the corresponding amide",induces considerably lower amounts apoptosis only after 72 h
same,Activity against ER- and ER+ carcinoma cells (induction of apoptosis),[1]; ER- and ER+ carcinoma cells,inactive
CC1=C(/C=C/C(C)=C\C=C\C(C)=C\C(=O)O)C(C)(C)CCC1 [9-cis RA],Tumor regression (in words),tumors; 9-cis RA and its analogs,cause tumor regression
same,Binding to RXR (in words),[2],bind
same,Binding to RAR (in words),"RAR α, β and γ receptors",bind
"CC1=C(/C=C/C(C)=C/C=C/C(C)=C/C(=O)Nc2ccc(O)cc2)C(C)(C)CCC1 [4-HPR, all trans 4-hydroxyphenyl retinamide]",Growth inhibition and apoptosis in breast carcinoma cells (in words),[3],capable of inhibiting cell growth and inducing apoptosis; also recorded: appears to induce apoptosis and cause inhibition of cell growth
same,Induction of apoptosis in retinoid-resistant cells (in words),tumor cells; cells resistant to retinoids that activate RARs efficiently,effective in inducing apoptosis
same,Growth inhibition and apoptosis in other tumor cell types (in words),tumor cells; including lung carcinoma cell and hematopoetic malignancies,inhibit cell growth and to induce apoptosis
same,Chemopreventative activity (in words),tumors; against a number of malignancies,potent chemopreventative agent
same,Tumor regression (in words),tumors; in vivo,capable of tumor regression in vivo
same,Effect on tumor formation and tumor growth (in words),tumors; via apoptosis,inhibit tumor formation and tumor growth via apoptosis
same,Major toxicity seen in the clinic,[4],night vision impairment
COc1cccc2c1C(=O)c1c(O)c3c(c(O)c1C2=O)C[C@@](O)(C(=O)CO)C[C@@H]3O[C@H]1C[C@H](N)[C@H](O)[C@H](C)O1 [Adriamycin],Induction of apoptosis in human carcinoma cells (in words),human carcinoma cells,induce apoptosis
CC1=C(/C=C/C(C)=C/C=C/C(C)=C/C(=O)O)C(C)(C)CCC1 [All-trans RA],Ability to induce apoptosis (in words),tumor cells,very limited
same,Differentiation of certain tumor cells (in words),tumor cells,cause differentiation of certain tumor cells in vitro
CC(=O)O[C@H]1C(=O)[C@@]2(C)[C@H]([C@H](OC(=O)c3ccccc3)[C@]3(O)C[C@H](OC(=O)[C@H](O)[C@@H](NC(=O)c4ccccc4)c4ccccc4)C(C)=C1C3(C)C)[C@]1(OC(C)=O)CO[C@@H]1C[C@@H]2O [Taxol],Induction of apoptosis in human carcinoma cells (in words),human carcinoma cells,induce apoptosis
O=c1[nH]cc(F)c(=O)[nH]1 [5FU],Induction of apoptosis in human carcinoma cells (in words),human carcinoma cells,induce apoptosis
